Results on one compound are retold here after patent publication US10201532B2, “Compounds and their use” (ALLECRA THERAPEUTICS GMBH, priority 2010, dated 2019).

The test system of assay [1] is K. pneumoniae NCTC 13438 (KPC3). In words: Synergistic broth micro-dilution MIC. In kind it is cell-based, Klebsiella pneumoniae. To be noted: Klebsiella pneumoniae, NCTC13438, no BLI, read-out: MIC of imipenem, No BLI.
The test system of assay [2] is K. pneumoniae ATCC 700603 (SHV18). In words: Disk zone of inhibition, antibiotic + Compound-1 on same disk (Methodology 2). Format: cell-based, Klebsiella pneumoniae. To be noted: CAZ 30 μg or IPM 10 μg disk alone. The text has this:
(§1) In this experiment, Compound-1 is used as a diagnostic reagent for the detection of β-lactamases belonging to the families KPC & ESBL (e.g., SHV18) producing Enterobacteriaceae. A simple set of absorbent paper disks impregnated with antibiotic on agar medium is used for the detection.
(§2) • 0.5 McFarland of the test organism was inoculated at 1:10 dilution on Muller • Hinton Agar plates • Test organisms: Klebsiella pneumoniae (K.p) ATCC BAA-1705, Klebsiella pneumoniae ATCC 700603, Escherichia coli (E.c) Ecoli233 • Carbapenem (e.g., Imipenem [IPM] 10 μg) and cephalosporin (e.g., Ceftazidime [CAZ] 30 μg) paper disks (7 mm) were placed on the inoculated agar plates • Compound-1 (60 μg) disk was placed at a distance of 7 & 10 mm from the carbapenem and cephalosporin disks. • The presence of expressed carbapenemases or ESBLs was measured as the expansion of Imipenem or Ceftazidime's inhibition zones due to synergy in the presence of Compound-1. Results:
(§3) The methodology remains the same as Methodology 1 except the following change • Compound-1 (60 μg) was added on the same disk in combination with a carbapenem (e.g., Imipenem 10 μg) or cephalosporin (e.g., Ceftazidime 30 μg) and placed on the inoculated agar plate. • The presence of the expressed carbapenemases or ESBLs was measured as an increase in Imipenem or Ceftazidime's zone diameter in combination with Compound-1 compared to antibiotic alone. Results

Assay [3] has as its system KPC-2 producing K. pneumoniae (ATCC BAA-1705). In words: Synergistic broth micro-dilution MIC (checkerboard). In kind it is cell-based, Klebsiella pneumoniae. Conditions: Klebsiella pneumoniae, ATCCBAA1705, no BLI; ATCC BAA-1705; read-out: MIC of antibiotic alone (no BLI). A general note: In broth dilution the organism is exposed to a series of concentrations in liquid medium.

The subject of assay [4] is K. pneumoniae ATCC BAA-1705 (KPC2). As to the kind of experiment: Disk zone of inhibition, antibiotic + Compound-1 on same disk (Methodology 2). Format: cell-based, Klebsiella pneumoniae. Conditions: CAZ 30 μg or IPM 10 μg disk alone.
From the text: as §1
as §2, with “Compound-1.” for “Compound-1. Results:”
as §3

Assay [5] deals with E. cloacae 01 MGH 049 (KPC2, AmpC). As to the kind of experiment: Synergistic broth micro-dilution MIC. In kind it is cell-based. To be noted: Enterobacter cloacae, no BLI, read-out: MIC of imipenem, No BLI.
Assay [6] concerns E. coli Ecoli233 (KPC3). In words: Synergistic broth micro-dilution MIC. In kind it is cell-based, Escherichia coli. To be noted: Escherichia coli, no BLI, read-out: MIC of imipenem, No BLI.
In assay [7] the test system is KPC2 K. pneumoniae ATCC BAA 1705. As to the kind of experiment: Mice systemic infection model. Format: in vivo. To be noted: Klebsiella pneumoniae, BAA1705; mice, sub-cutaneous; with cilastatin; read-out: ED50 of Imipenem alone. How it is done:
Female Swiss Albino mice, weighing 18-22 g were used for all studies. For each dose group, 5 or 6 mice were included. Study protocols were reviewed and approved by Institutional Animal Ethical Committee, Orchid Research Laboratories Limited. Mice were housed in individually ventilated cages provided with food and water ad libitum, throughout the study period. From overnight culture in Brain-Heart Infusion agar medium, challenge inoculum with required bacterial density was prepared in normal saline containing Hog gastric mucin. In studies involved with doripenem, washed bacterial cells was used. Each mouse was infected […] inoculum by intra-peritoneal injection.
Infected mice were dosed sub-cutaneously, with drug preparations at three different time points post-infection.
Imipenem with BLI combinations: Increasing concentrations of Imipenem as single agent or in combination with fixed concentration of BLIs were used to dose infected mice, sub-cutaneously. In this experiment Imipenem was always administered along with cilastatin. Doripenem with BLI combinations: Increasing concentrations of doripenem as single agent or in combination with fixed concentration of BLIs were used to dose infected mice, sub-cutaneously.
Survival of the treated mice were monitored twice a day, up to 7 days post-infection. Efficacy dose 50 (ED50) was calculated by Reed and Muench method (Reed, L. J.; Muench, H. “A simple method of estimating fifty percent endpoints”. The American Journal of Hygiene, 1938, 27: 493-497.).

Assay [8] concerns K. pneumoniae UMM3 (KPC2). As to the kind of experiment: Synergistic broth micro-dilution MIC. In kind it is cell-based, Klebsiella pneumoniae. Conditions: Klebsiella pneumoniae, no BLI, read-out: MIC of imipenem, No BLI.
For assay [9], the system named is KPC2 K. pneumoniae ATCC BAA 1705. As to the kind of experiment: Neutropenic mice thigh infection model (human adapted model). To be noted: Imipenem 140 mg/kg fractionated over 5.5 h; end point 6 h. Format: in vivo. The method, then:
Female Swiss Albino mice weighing 24-30 g were used for all studies. Study protocols were reviewed and approved by Institutional Animal Ethical Committee, Orchid Research Laboratories Limited. Mice were rendered neutropenic by intra-peritoneal cyclophosphamide injections. Log phase culture in brain heart infusion broth was injected in to mice thighs. Imipenem or Doripenen alone or in combination were administered sub-cutaneously in decreasing fractionated doses every 15 minutes over the period of 5.5 h (Flückiger, U. et al. “Integration of pharmacokinetics and pharmacodynamics of Imipenem in a human-adapted mouse model’. Antimicrobial Agents and Chemother, 1991, 35(9): 1905-1910). The Compound-1 or tazobactam was administered sub-cutaneously as bolus dose at the start of dosing. Efficacy end point was 6 h in Imipenem studies and 8 h in Doripenen studies.
Three experiments were carried out where Doripenen alone or in combination with compound-1 or tazobactam (two experiments) were evaluated. Doripenem 70 mg/kg was administered in fractionated doses over the period of 5.5 h (Fluckiger, U. et al. “Integration of pharmacokinetics and pharmacodynamics of Imipenem in a human-adapted mouse model’. Antimicrobial Agents and Chemother., 1991, 35(9): 1905-1910). Compound-1 or tazobactam was administered as bolus dose at initiation of therapy. Efficacy end point was 8 h after initiation of therapy.

In assay [10] the test system is E. coli Ecoli233 (KPC3). In words: Disk zone of inhibition, antibiotic + Compound-1 on same disk (Methodology 2). Format: cell-based, Escherichia coli. To be noted: CAZ 30 μg or IPM 10 μg disk alone.
From the text: as §1
as §2, with “Compound-1.” for “Compound-1. Results:”
as §3

In assay [11] the test system is KPC-3 expressing E. coli (J53 R6206). As to the kind of experiment: Synergistic broth micro-dilution MIC (checkerboard). Conditions: no BLI. In kind it is cell-based, Escherichia coli.
For assay [12], the system named is E. coli ATCC 25922 (β-lac-ve). As to the kind of experiment: Disk zone of inhibition, antibiotic + Compound-1 on same disk (Methodology 2). Format: cell-based, Escherichia coli. Conditions: CAZ 30 μg or IPM 10 μg disk alone; ATCC 25922.

Molecules are shown by their SMILES.

Turning to `C[C@@H](O)[C@H]1C(=O)N2C(C(=O)O)=C(SCCN=CN)C[C@H]12` [Imipenem], the MIC (commonly the least concentration at which growth counts as inhibited) in assay [1] was 128 µg/mL; in assay [3] it was 32 to 64 µg/mL; in [5], 8 µg/mL; in the assay on E. coli Ecoli233 (KPC3) [6], 16 µg/mL; in [8], 8 µg/mL. The “Zone of inhibition (ZOI), antibiotic alone” value in [2] is 25 mm; in assay [4] it was 14.5 mm; in the assay with E. coli Ecoli233 (KPC3) [10] it was 14 mm; in assay [12], 26.5 mm. Moreover, the ED50 (usually the dose at which the effect has come halfway, by size or by number of responders) in [7] stood at 8.9 mg/kg. The “Bacterial load, Imipenem alone” value in [9] is 6.8E+06 CFU/thigh. In addition, the “MIC of antibiotic alone (no BLI)” value in assay [11] lay within 2 to 4 µg/mL.
